{"source": "patent US6730672B2", "about": "“Aminoheterocyclic derivatives as antithrombotic or anticoagulant agents” (Zeneca Limited, priority 1994, dated 2004)", "data": [{"molecular_target": "human Factor Xa (Homo sapiens, UniProt P00742)", "sequence (P00742 235-488 limits assumed)": "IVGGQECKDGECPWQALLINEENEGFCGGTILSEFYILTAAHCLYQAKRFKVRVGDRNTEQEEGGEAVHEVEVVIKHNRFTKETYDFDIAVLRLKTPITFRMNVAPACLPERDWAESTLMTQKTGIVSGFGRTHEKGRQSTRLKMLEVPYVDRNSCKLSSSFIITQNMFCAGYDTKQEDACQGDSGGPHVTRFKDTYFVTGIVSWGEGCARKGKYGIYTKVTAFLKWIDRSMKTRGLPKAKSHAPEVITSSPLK", "sequence (P00742 41-179 partner limits assumed)": "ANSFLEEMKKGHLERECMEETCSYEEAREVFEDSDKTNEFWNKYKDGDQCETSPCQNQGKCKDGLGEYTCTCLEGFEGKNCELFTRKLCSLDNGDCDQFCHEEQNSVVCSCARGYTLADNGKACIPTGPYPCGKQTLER", "experiment": "Measurement of Factor Xa Inhibition (chromogenic substrate S-2765)", "assay_type": "biochemical", "settings": "test a), pH7.5, 37° C., read-out: IC50 against Factor Xa", "procedure": "a) Measurement of Factor Xa Inhibition\nAn in vitro assay system was carried out based on the method of Kettner et al., J. Biol. Chem., 1990, 265, 18289-18297, whereby various concentrations of a test compound were dissolved in a pH7.5 buffer containing 0.5% of polyethylene glycol and incubated at 37° C. with human Factor Xa (0.001 Units/ml, 0.3 ml) for 15 minutes. The chromogenic substrate S-2765 (KabiVitum AB, 20 μM) was added and the mixture was incubated at 37° C. for 20 minutes whilst the absorbance at 405 nm was measured. The maximum reaction velocity (Vmax) was determined and compared with that of a control sample containing no test compound. Inhibitor potency was expressed as an IC50 value.", "units": {"IC50": "µM"}, "values": [{"smiles": "O=C(C1CCN(c2ccncc2)CC1)N1CCN(S(=O)(=O)c2ccc(-c3ccc(Cl)cc3)cc2)CC1", "note": "[Example 41, Compound No. 3, 1-(4′-chloro-4-biphenylylsulphonyl)-4-[1-(4-pyridyl)-piperidin-4-ylcarbonyl]piperazine]", "IC50": 0.01}]}, {"system": "not given", "experiment": "not given", "settings": "not given", "values": [{"smiles": "Cl.O=C(c1ccc(NS(=O)(=O)c2ccc(-c3ccc(Br)cc3)cc2)cc1)N1CCN(c2ccncc2)CC1", "melting point": "201 to 205 °C"}, {"smiles": "O=C(C1CCN(c2ccncc2)CC1)N1CCN(S(=O)(=O)c2ccc3ccccc3c2)CC1", "note": "[Example 2, 1-(2-naphthylsulphonyl)-4-[1-(4-pyridyl)piperidin-4-ylcarbonyl]piperazine]", "melting point": "172 to 173 °C"}, {"smiles": "O=C(CNS(=O)(=O)c1ccc2ccccc2c1)NC(CNC(=O)N1CCN(c2ccncc2)CC1)C(=O)N1CCCCC1", "note": "(stereo not drawn) [Example 3, 2-(2-naphthalenesulphonamido)-N-{1-piperidinocarbonyl-2-[4-(4-pyridyl)piperazin-1-ylcarbonylamino]-ethyl}acetamide]", "melting point": "223 to 226 °C"}, {"smiles": "O=C(CC1CCN(c2ccncc2)CC1)NCC(NC(=O)CNS(=O)(=O)c1ccc2ccccc2c1)C(=O)N1CCCCC1", "note": "(stereo not drawn) [Example 4, 2-(2-naphthalenesulphonamido)-N-(1-piperidinocarbonyl-2-{2-[1-(4-pyridyl)piperidin-4-yl]acetamido}ethyl)acetamide]", "melting point": "148 to 149 °C"}, {"smiles": "CCOC(=O)C(CNC(=O)C1CCN(c2ccncc2)CC1)NC(=O)CNS(=O)(=O)c1ccc2ccccc2c1", "note": "(stereo not drawn) [Example 6, N-{1-ethoxycarbonyl-2-[1-(4-pyridyl)-piperidin-4-ylcarbonylamino]ethyl}-2-(2-naphthalenesulphonamido)-acetamide]", "melting point": "142 to 145 °C"}, {"smiles": "O=C(CNS(=O)(=O)c1ccc2ccccc2c1)NC(CNC(=O)C1CCN(c2ccncc2)CC1)C(=O)O", "note": "(stereo not drawn) [Example 9, 2-[2-(2-naphthalenesulphonamido)acetamido]-3-[1-(4-pyridyl)piperidin-4-ylcarbonylamino]propionic acid]", "melting point": "108 to 111 °C (dec.)"}, {"smiles": "O=C(CNS(=O)(=O)c1ccc2ccccc2c1)NCC(NC(=O)C1CCN(c2ccncc2)CC1)C(=O)N1CCCCC1", "note": "(stereo not drawn) [Example 11, 2-(2-naphthalenesulphonamido)-N-{2-piperidinocarbonyl-2-[1-(4-pyridyl)piperidin-4-ylcarbonylamino]ethyl}acetamide]", "melting point": "200 to 202 °C"}, {"smiles": "O=C(CNS(=O)(=O)c1ccc2ccccc2c1)N[C@@H](CC(=O)N1CCN(c2ccncc2)CC1)C(=O)N1CCCCC1", "note": "[Example 18, 2-(2-naphthalenesulphonamido)-N-{(1S)-1-(piperidinocarbonyl)-2-[4-(4-pyridyl)piperazin-1-ylcarbonyl]ethyl}-acetamide]", "melting point": "201 to 203 °C"}, {"smiles": "O=C(CCNS(=O)(=O)c1ccc2ccccc2c1)NC(CNC(=O)C1CCN(c2ccncc2)CC1)C(=O)N1CCCCC1", "note": "(stereo not drawn) [Example 20, 3-(2-naphthalenesulphonamido)-N-{1-(piperidinocarbonyl)-2-[1-(4-pyridyl)piperidin-4-ylcarbonylamino]ethyl}propionamide]", "melting point": "201 to 203 °C"}, {"smiles": "Cc1ccc(NC(=O)NC(CNC(=O)C2CCN(c3ccncc3)CC2)C(=O)N2CCCCC2)cc1", "note": "(stereo not drawn) [Example 22, N-{2-piperidinocarbonyl-2-[3-(4-tolyl)ureido]ethyl}-1-(4-pyridyl)-piperidine-4-carboxamide]", "melting point": "252 to 253 °C"}, {"smiles": "O=C(CNS(=O)(=O)c1ccc2ccccc2c1)NCCNC(=O)C1CCN(c2ccncc2)CC1", "note": "[Example 30, 2-(2-naphthalenesulphonamido)-N-{2-[1-(4-pyridyl)piperidin-4-ylcarbonylamino]ethyl}acetamide]", "melting point": "107 to 109 °C"}, {"smiles": "O=C(CNS(=O)(=O)c1ccc2ccccc2c1)NCCNC(=O)C1CCN(c2ccncn2)CC1", "note": "[Example 32, 2-(2-naphthalenesulphonamido)-N-{2-[1-(4-pyrimidinyl)piperidin-4-ylcarbonylamino]ethyl}acetamide]", "melting point": "178 to 179 °C"}, {"smiles": "Cc1cc(N2CCC(C(=O)NCCNC(=O)CNS(=O)(=O)c3ccc4ccccc4c3)CC2)nc(N)n1", "note": "[Example 34, N-{2-[1-(2-amino-6-methylpyrimidin-4-yl)piperidin-4-ylcarbonylamino]ethyl}-2-(2-naphthalenesulphonamido)acetamide]", "melting point": "225 to 226 °C"}, {"smiles": "O=C(O)C1CN(C(=O)C2CCN(c3ccncc3)CC2)CCN1S(=O)(=O)c1ccc2ccccc2c1", "note": "(stereo not drawn) [Example 43, 1-(2-naphthylsulphonyl)-4-[1-(4-pyridyl)piperidin-4-ylcarbonyl]-piperazine-2-carboxylic acid]", "melting point": "188 to 193 °C"}, {"smiles": "O=C(C1CCN(c2ccncc2)CC1)N1CCCN(S(=O)(=O)c2ccc3ccccc3c2)CC1", "note": "[Example 49, 1-(2-naphthylsulphonyl)-4-[1-(4-pyridyl)piperidin-4-ylcarbonyl]-1,4-diazepane]", "melting point": "178 to 180 °C"}, {"smiles": "O=C(N1CCN(c2ccncc2)CC1)N1CCN(S(=O)(=O)c2ccc3ccccc3c2)CC1", "note": "[Example 50, 1-(2-naphthylsulphonyl)-4-[4-(4-pyridyl)-piperazin-1-ylcarbonyl]piperazine]", "melting point": "210 to 212 °C"}, {"smiles": "O=C(C1CCN(c2ccncn2)CC1)N1CCN(S(=O)(=O)c2ccc3ccccc3c2)CC1", "note": "[Example 55, 1-(2-naphthylsulphonyl)-4-[1-(4-pyrimidinyl)piperidin-4-ylcarbonyl]-piperazine]", "melting point": "203 to 205 °C"}, {"smiles": "O=C(C1CCN(c2ccncn2)CC1)N1CCN(S(=O)(=O)/C=C/c2ccc(Cl)cc2)CC1", "note": "[Example 57, 1-[(E)-4-chlorostyrylsulphonyl]-4-[1-(4-pyrimidinyl)piperidin-4-ylcarbonyl]piperazine]", "melting point": "209 to 210 °C"}, {"smiles": "Cc1ccc(-c2ccc(S(=O)(=O)N3CCN(C(=O)C4CCN(c5ccncc5)CC4)CC3)cc2)cc1", "note": "[Example 58, 1-(4′-methylbiphenyl-4-ylsulphonyl)-4-[1-(4-pyridyl)piperidin-4-ylcarbonyl]piperazine]", "melting point": "213 to 217 °C"}, {"smiles": "O=C(C1CCN(c2ccncc2)CC1)N1CCN(S(=O)(=O)c2ccc(-c3ccccn3)cc2)CC1", "note": "[Example 60, 1-[4-(2-pyridyl)phenylsulphonyl]-4-[1-(4-pyridyl)piperidin-4-ylcarbonyl]piperazine]", "melting point": "224 to 226 °C"}, {"smiles": "O=C(O)C1CN(S(=O)(=O)c2ccc3ccccc3c2)CCN1C(=O)C1CCN(c2ccncc2)CC1", "note": "(stereo not drawn) [Example 61, 2-carboxy-4-(2-naphthylsulphonyl)-1-[1-(4-pyridyl)piperidin-4-ylcarbonyl]piperazine]", "melting point": "225 to 228 °C (dec.)"}, {"smiles": "O=C(C1CCN(c2ccncc2)CC1)N1CCN(S(=O)(=O)c2ccc3ccccc3c2)C(Cc2ccccc2)C1", "note": "(stereo not drawn) [Example 66, 2-benzyl-1-(2-naphthylsulphonyl)-4-[1-(4-pyridyl)piperidin-4-ylcarbonyl]piperazine]", "melting point": "186 to 188 °C"}, {"smiles": "O=C(C1CCN(c2ccncn2)CC1)N1CCN(S(=O)(=O)c2ccc3cc(Cl)ccc3c2)CC1", "note": "[Example 69, 1-(6-chloronaphth-2-ylsulphonyl)-4-[1-(4-pyrimidinyl)-piperidin-4-ylcarbonyl]piperazine]", "melting point": "218 to 219 °C"}, {"smiles": "Nc1nccc(N2CCC(C(=O)N3CCN(S(=O)(=O)c4ccc5cc(Cl)ccc5c4)CC3)CC2)n1", "note": "[Example 70, 4-[1-(2-aminopyrimidin-4-yl)piperidin-4-ylcarbonyl]-1-(6-chloronaphth-2-ylsulphonyl)piperazine]", "melting point": "265 to 267 °C"}, {"smiles": "O=C(C1CCN(c2nc(Cl)nc(Cl)n2)CC1)N1CCN(S(=O)(=O)c2ccc3cc(Cl)ccc3c2)CC1", "note": "[Example 73, 1-(6-chloronaphth-2-ylsulphonyl)-4-[1-(4,6-dichloro-1,3,5-triazin-2-yl)piperidin-4-ylcarbonyl]piperazine]", "melting point": "230 to 233 °C"}, {"smiles": "CCOC(=O)C1CN(S(=O)(=O)c2ccc3cc(Br)ccc3c2)CCN1C(=O)C1CCN(c2ccncc2)CC1", "note": "(stereo not drawn) [Example 82, 4-(6-bromonaphth-2-ylsulphonyl)-2-ethoxycarbonyl-1-[1-(4-pyridyl)-piperidin-4-ylcarbonyl]piperazine]", "melting point": "117 to 121 °C"}, {"smiles": "O=C(O)C1CN(S(=O)(=O)c2ccc3cc(Br)ccc3c2)CCN1C(=O)C1CCN(c2ccncc2)CC1", "note": "(stereo not drawn) [Example 83, 4-(6-bromonaphth-2-ylsulphonyl)-2-carboxy-1-[1-(4-pyridyl)piperidin-4-ylcarbonyl]piperazine]", "melting point": "216 to 222 °C (dec.)"}, {"smiles": "O=C(C1CN(S(=O)(=O)c2ccc3cc(Br)ccc3c2)CCN1C(=O)C1CCN(c2ccncc2)CC1)N1CCOCC1", "note": "(stereo not drawn) [Example 84, 4-(6-bromonaphth-2-ylsulphonyl)-2-morpholinocarbonyl-1-[1-(4-pyridyl)-piperidin-4-ylcarbonyl]piperazine]", "melting point": "235 to 237 °C"}, {"smiles": "Cc1cc(N2CCC(C(=O)N3CCN(S(=O)(=O)c4ccc5cc(Cl)ccc5c4)CC3)CC2)nc(N)n1", "note": "[Example 86, 4-[1-(2-amino-6-methylpyrimidin-4-yl)piperidin-4-ylcarbonyl]-1-(6-chloronaphth-2-ylsulphonyl)piperazine]", "melting point": "210 to 212 °C"}, {"smiles": "O=C(c1ccc(NS(=O)(=O)/C=C/c2ccc(Cl)cc2)cc1)N1CCN(c2ccncc2)CC1", "note": "[Example 89, N-{4-[4-(4-pyridyl)piperazin-1-ylcarbonyl]phenyl}-(E)-4-chlorostyrenesulphonamide]", "melting point": "207 to 209 °C"}, {"smiles": "O=C(C1CCN(S(=O)(=O)c2ccc3cc(Br)ccc3c2)CC1)N1CCN(c2ccncc2)CC1", "note": "[Example 92, 1-[1-(6-bromonaphth-2-ylsulphonyl)piperidin-4-ylcarbonyl]-4-(4-pyridyl)piperazine]", "melting point": "229 to 230 °C"}]}, {"molecular_target": "human thrombin (Homo sapiens, UniProt P00734)", "experiment": "Measurement of Thrombin Inhibition (chromogenic substrate S-2238)", "assay_type": "biochemical", "settings": "test b), read-out: IC50 against thrombin", "description": "b) Measurement of Thrombin Inhibition\nThe procedure of method a) was repeated except that human thrombin (0.005 Units/ml) and the chromogenic substrate S-2238 (KabiVitum AB) were employed.", "units": {"IC50": "µM"}, "values": [{"smiles": "O=C(C1CCN(c2ccncc2)CC1)N1CCN(S(=O)(=O)c2ccc(-c3ccc(Cl)cc3)cc2)CC1", "note": "[Example 41, Compound No. 3, 1-(4′-chloro-4-biphenylylsulphonyl)-4-[1-(4-pyridyl)-piperidin-4-ylcarbonyl]piperazine]", "IC50": 83}]}]}
